Read-outs that look alike come from different tables or passages of the source.
Tests used:
RBL-2H3 cells = assay: Inhibition of serotonin liberation from IgE-sensitized RBL-2H3 cells after antigen stimulation; type: cell-based, rat
From the text: IgE-sensitized RBL-2H3 cells (i.e., a cell line originating in rat cells) release and produce not only histamine and serotonin but also cytokines such as TNF α and prostaglandins which are inflammatory mediators after stimulation with IgE sepecific antibody. In this experimental system, inhibitory effects on various mediators release were examined by using serotonin as an indication.
The cells were beforehand labeled with [^3H]-labeled serotonin and, at the same time, sensitized with the IgE antibody. After incubating with the compounds of the present invention, the cells were stimulated with the specific antigen. Then the inhibitory activity of each compound was calculated from the amount of the [^3H]-labeled serotonin thus liberated into the medium and the amount of [^3H]-labeled serotonin liberated when no compound of the present invention was added.

human basophils = assay: Inhibition of mediator (histamine, peptide leukotriene) liberation from human basophils stimulated with mite antigen; type: cell-based; settings: enzyme immunoassay
Description: 6 ml of 6% dextran (for separating leukocytes, having a high molecular weight) was added to 20 ml of heparinized blood. After stirring well, the resulting mixture was allowed to stand at 37° C. for 30 min and thus erythrocytes were precipitated. The upper layer was taken up and phosphate buffered saline (D-PBS) was added thereto followed by centrifugation at 185 g for 8 minutes to give a crude leukocyte fraction. These cells were subjected to hypotonic hematolysis and then suspended in D-PBS(+) containing 0.1%-BSA. The resulting suspension was used in the subsequent experiment as the leukocyte fraction containing basophils. 0.4 ml of this cell suspension was preliminarily heated to 37° C. for 5 min and then 0.05 ml of a specimen solution was added thereto followed by a pretreatment at 37° C. for 15 min. Next, 0.05 ml of a mite antigen solution was added thereto to induce an antigen-antibody reaction. After 10 min, the reaction was ceased by ice-cooling. Then the reaction mixture was centrifuged at 185 g for 10 min and histamine and peptide leukotrienes in the resulting supernatant were determined by using enzyme immunoassay kits. From the results of the assay, the activities of the acridone derivatives of inhibiting the liberation of histamine and peptide leukotriene were determined.

[1] = Rattus norvegicus, [3H]-serotonin release, IgE-sensitized RBL-2H3 cells, antigen stimulation, read-out: IC50 (μM) in serotonin liberation from RBL-2H3 cells
[2] = histamine, read-out: IC50 (μM) in mediator liberation from human basophils: histamine
[3] = peptide leukotriene, read-out: IC50 (μM) in mediator liberation from human basophils: leukotriene

SMILES	IC50 (RBL-2H3 cells; [1]) [µM]	IC50 (human basophils; [2]) [µM]	IC50 (human basophils; [3]) [µM]	also measured
COc1cccc(CNCCN2c3ccccc3[S+]([O-])c3ccc(C)c(C)c32)c1O (centres unmarked) [Example 154]	6	10 to 30	< 10	
Cc1ccc2c(c1C)N(CCNCc1cccc(C)c1O)c1ccccc1[S+]2[O-] (centres unmarked) [Example 145]	6	10 to 30	< 10	
Cc1ccc2c(c1C)N(CCCNCc1cccc(OC(C)C)c1O)c1ccccc1[S+]2[O-] (centres unmarked) [Example 28]	0.8	10 to 30	3	
Cc1ccc2c(c1C)N(CCCNCc1cccc(Br)c1O)c1ccccc1[S+]2[O-] (centres unmarked) [Example 30]	2	3 to 10	< 3	
Cc1cc(C)c2c(c1C)N(CCCNCc1ccccc1)c1ccccc1[S+]2[O-] (centres unmarked) [Example 100]	2	3	10	
Cc1ccc2c(c1C)N(CCCNCc1cccc(F)c1O)c1ccccc1[S+]2[O-] (centres unmarked) [Example 42]	2	3 to 10	< 3	
Cc1ccc2c(c1C)N(CCCN1CCN(Cc3ccccc3O)CC1)c1ccccc1[S+]2[O-] (centres unmarked) [Example 114]	2	30 to 100	10	
Cc1ccc2c(c1C)N(CCCNCc1ccccc1OCCO)c1ccccc1[S+]2[O-] (centres unmarked) [Example 46]	0.5	10 to 30	10 to 30	
Cc1ccc2c(c1C)N(CCN(CCO)Cc1ccccc1)c1ccccc1[S+]2[O-] (centres unmarked) [Example 193]	2	30	10	
Cc1ccc2c(c1C)N(CCCNCc1ccccc1O)c1ccccc1[S+]2[O-] (centres unmarked) [Example 23]	2	10 to 30	10 to 30	
Cc1ccc2c(c1C)N(CCNCc1cccc(C(C)C)c1O)c1ccccc1[S+]2[O-] (centres unmarked) [Example 147]	3	10	< 10	
Cc1ccc2c(c1C)N(CCCN(C)Cc1ccc(O)cc1)c1ccccc1[S+]2[O-] (centres unmarked) [Example 165]	0.3	10 to 30	3 to 10	
Cc1ccc2c(c1C)N(CCCNCc1c(O)cccc1O)c1ccccc1[S+]2[O-] (centres unmarked) [Example 36]	1	3 to 10	3 to 10	
COc1ccccc1CNCCN1c2ccccc2[S+]([O-])c2ccc(C)c(C)c21 (centres unmarked) [Example 155]	4	30 to 100	10 to 30	
Cc1ccc2c(c1C)N(CCCNCc1ccc(C#N)s1)c1ccccc1[S+]2[O-] (centres unmarked) [Example 58]	2	10 to 30	10 to 30	
CCOC(=O)CN(CCCN1c2ccccc2[S+]([O-])c2ccc(C)c(C)c21)Cc1ccccc1O (centres unmarked) [Example 134]	3	3	3	
COc1ccsc1CNCCCN1c2cc(Cl)ccc2[S+]([O-])c2ccc(C)c(C)c21 (centres unmarked) [Example 85]	3	3	10 to 30	
COCc1cccc(CNCCCN2c3ccccc3[S+]([O-])c3ccc(C)c(C)c32)c1O (centres unmarked) [Example 35]	1	3	3 to 10	
COc1ccc(CN(C)CCCN2c3ccccc3[S+]([O-])c3ccc(C)c(C)c32)o1 (centres unmarked) [Example 176]	2	30 to 100	10 to 30	
Cc1ccc2c(c1C)N(CCCNCc1ccc3c(c1)OCCO3)c1ccccc1[S+]2[O-] (centres unmarked) [Example 53]	0.8	30 to 100	10 to 30	

SMILES	IC50 (RBL-2H3 cells; [1]) [µM]	IC50 (human basophils; [2]) [µM]	IC50 (human basophils; [3]) [µM]	also measured
Cc1ccc2c(c1C)N(CCCNCc1cccc(C)c1O)c1ccccc1[S+]2[O-] (centres unmarked) [Example 26]	2	< 10	< 10	
COc1ccc(CNCCCN2c3ccccc3[S+]([O-])c3ccc(C)c(C)c32)s1 (centres unmarked) [Example 67]	1	10 to 30	10 to 30	
Cc1ccc2c(c1C)N(CCCN(CC(=O)O)Cc1ccccc1)c1ccccc1[S+]2[O-] (centres unmarked) [Example 109]	3			
Cc1ccc2c(c1C)N(CCCN(CC(=O)O)Cc1ccccc1O)c1ccccc1[S+]2[O-] (centres unmarked) [Example 135]	2			
Cc1ccc2c(c1C)N(CCCNCc1ccc(Cl)cc1Cl)c1cc(CCO)ccc1[S+]2[O-] (centres unmarked) [Example 93]	3			
Cc1ccc2c(c1C)N(CCCN1CCN(Cc3ccccc3)C(C(=O)O)C1)c1ccccc1[S+]2[O-] (centres unmarked) [Example 110]	1			
Cc1ccc2c(c1C)N(CCCNc1ccccc1O)c1ccccc1[S+]2[O-] (centres unmarked) [Example 116]	10			
Cc1ccc2c(=NOCC(C)(C)C(=O)O)c3ccccc3n(CCCNCc3ccccc3)c2c1C [Example 248]	10			
Cc1ccc2c(=NOCc3ccccn3)c3ccccc3n(CCCN)c2c1C [Example 220]	6			
Cc1ccc2c(c1C)N(CCCNCc1ccccc1)c1ccc(C#N)cc1[S+]2[O-] (centres unmarked) [Example 88]	1			
CCC(ON=c1c2ccccc2n(CCCNCc2ccccc2)c2c(C)c(C)ccc12)C(=O)O (centres unmarked) [Example 237]	10			
Cc1ccc2c(c1C)N(CCCNCc1ccccc1OCC(=O)O)c1ccccc1[S+]2[O-] (centres unmarked) [Example 56]	3			
Cc1ccc2c(=NOCCc3ccccn3)c3ccccc3n(CCCNCc3ccccc3)c2c1C [Example 241]	4			
Cc1ccc2c(c1C)N(CCN1CCC(O)(c3ccccc3)CC1)c1ccccc1S2(=O)=O [Example 199]				IC50 (RBL-2H3 cells; Rattus norvegicus, RBL-2H3, read-out: IC50 (μM) in serotonin liberation from RBL-2H3 cells): 10 µM
Cc1ccc2c(c1C)N(CCCNCC1CC1)c1ccccc1[S+]2[O-] (centres unmarked) [Example 43]	4			
Cc1ccc2c(c1C)N(Cc1ccc(CN3CCC(C(=O)O)CC3)cc1)c1ccccc1[S+]2[O-] (centres unmarked) [Example 121]	1			
Cc1ccc2c(c1C)N(CCCN(CC#N)CC#N)c1ccccc1[S+]2[O-] (centres unmarked) [Example 131]	3			
Cc1ccc2c(c1C)N(CCCNCc1ccccc1C(=O)O)c1ccccc1[S+]2[O-] (centres unmarked) [Example 55]	8			
C=C1c2ccccc2N(CCCNCc2ccccc2)c2c1ccc(C)c2C [Example 206, 3,4-Dimethyl-9-methylene-10-(3-benzylaminopropyl)acridan]	15			
CO/N=c1\c2ccccc2n(CCCN)c2c(C)c(C)ccc12 [Example 208, (E,Z)-3,4-Dimethyl-10-(3-aminopropyl)-9-acridoneoxime-O-methyl Ether]				IC50 (RBL-2H3 cells; [3H]-serotonin release, IgE-sensitized RBL-2H3 cells, antigen stimulation, read-out: IC50 (μM) in serotonin liberation from RBL-2H3 cells): 3 µM

SMILES	IC50 (RBL-2H3 cells; [1]) [µM]	IC50 (human basophils; [2]) [µM]	IC50 (human basophils; [3]) [µM]	also measured
Cc1ccc2c(c1C)N(CCCNCC#N)c1ccccc1[S+]2[O-] (centres unmarked) [Example 130]	3			
Cc1ccc2c(c1C)N(CCCNCc1cc(Br)cc(Cl)c1O)c1ccccc1[S+]2[O-] (centres unmarked) [Example 41]	5			
Cc1ccc2c(=NOCCCC(=O)N(C)C)c3ccccc3n(CCCN)c2c1C [Example 222]	10			
Cc1ccc2c(c1C)N(CCCN)c1cc(Br)ccc1[S+]2[O-] (centres unmarked) [Example 10]	3			
COc1ccsc1CNCCCN1c2ccc(C#N)cc2[S+]([O-])c2ccc(C)c(C)c21 (centres unmarked) [Example 89]	2			
Cc1ccc2c(=NOC(C)C)c3ccccc3n(CCCNCc3ccccc3)c2c1C [Example 243]	6			
Cc1ccc2c(c1C)N(CCCNCc1nc3ccccc3s1)c1ccccc1[S+]2[O-] (centres unmarked) [Example 68]	4			
Cc1ccc2c(c1C)N(CCCN1CCN(C(CO)c3ccccc3)CC1)c1ccccc1[S+]2[O-] (centres unmarked) [Example 117]	2			
Cc1ccc2c(c1C)N(CCCNCc1cc(Br)cc(F)c1O)c1ccccc1[S+]2[O-] (centres unmarked) [Example 40]	5			
Cc1ccc2c(c1C)N(CCCN(CC(=O)O)Cc1ccccc1)c1ccccc1S2 [Example 5]	5			
Cc1ccc2c(c1C)N(CCNCc1cc(C)c(O)c(C)c1)c1ccccc1[S+]2[O-] (centres unmarked) [Example 148]	8			
Cc1ccc2c(=NOCCC(=O)O)c3ccccc3n(CCCNCc3ccccc3O)c2c1C [Example 247]	10			
Cc1ccc2c(c1C)N(CCCNCc1ccccc1)c1cc(-c3nn[nH]n3)ccc1[S+]2[O-] (centres unmarked) [Example 98]	0.5			
Cc1ccc2c(c1C)N(CCCN(C)Cc1ccccc1O)c1cc(Cl)ccc1[S+]2[O-] (centres unmarked) [Example 186]	10			
Cc1ccc2c(c1C)N(CCCNCc1nccnc1Cl)c1ccccc1[S+]2[O-] (centres unmarked) [Example 75]	6			
COC(=O)c1cccc2c1[S+]([O-])c1ccc(C)c(C)c1N2CCCNCc1ccccc1 (centres unmarked) [Example 91]	5			
Cc1ccc2c(=NOCCCC(=O)O)c3ccccc3n(CCCNCc3ccccc3)c2c1C [Example 242]	6			
Cc1ccc2c(c1C)N(CCNCc1ccc(Cl)c(O)c1Cl)c1ccccc1[S+]2[O-] (centres unmarked) [Example 153]	6			
Cc1ccccc1CNCCCn1c2ccccc2c(=NOCCC(=O)O)c2ccc(C)c(C)c21 [Example 249]	10			
Cc1ccc2c(=NOCCC(=O)N(C)C)c3ccccc3n(CCCNCc3ccccc3)c2c1C [Example 244]	3			

From US6703388B2, “Nitrogen-containing tricyclic compounds and drugs containing the same” (Eisai Co., Ltd., priority 1996, dated 2004)
